Reference: patent US11730717B1, “Melanin-inspired antimicrobial” (The Board of Regents for the Oklahoma Agricultural and …, priority 2020, dated 2023)
Several values for one entry are separate records, joined by “and”; a condition that tells them apart may be missing. Equal values may be shown once. Entries after “also recorded” stand apart in the source; their conditions may differ. Read-outs that look alike come from different tables or passages of the source.

Tests used:
[1] = system: C. neoformans; experiment: Scanning electron microscopy of treated fungal cells; assay type: cell-based, Cryptococcus neoformans; conditions: exposed at the minimum inhibitory concentration 1.749 μg/mL for 4, 8, 12 or 24 hrs
Method: C. neoformans were suspended in RPMI with MOPs, 0.165M, at a concentration of 2.0×10^6 cells/mL. RPMI Mops media was added to a 2 mL collection tube in a volume of 100 μL. […] The tubes were incubated at 35° C. in a humid incubator for set time points of 4 hrs, 8 hrs, 12 hrs, or 24 hrs. Once removed, the tubes were placed in a centrifuge for 1 min. at 5000 rpm. Media was removed. The pellet was resuspended in 2.0% glutaraldehyde in 0.1 M cacodylate buffer at a volume of 1 mL for a minimum of 2 hrs.
Fixed C. neoformans cells were placed in a centrifuge for 1 min at 5000 rpm. Media was removed and C. neoformans was rinsed 3 times in a buffered wash at fixed intervals of 15 mins. Rinsed cells were resuspended in 1% OsO4 at room temperature for 1 hr in a 36-well plate with a cover slip. 1% OsO4 was removed. C. neoformans was rinsed 3 times in a buffered wash at fixed intervals of 15 mins. C. neoformans were dehydrated in ethanol at 50%, 70%, 90%, 95%, and 100% three times at fixed intervals of 15 mins. C. neoformans were wash two times with […] at a time interval of 5 mins. Cover slips were placed on a clear sheet for 12 hrs to dry. Cover slips were mounted on stubs with silver paint. The cover slips were covered in an Au—Pd coat. […]

[2] = system: S. aureus SFL64; experiment: MIC and MBC values (Table 2); assay type: cell-based, Staphylococcus aureus; conditions: repeated determinations
[3] = system: Candida isolates from the airways of CF patients; experiment: MIC against Candida clinical isolates; assay type: cell-based; conditions: range over multiple Candida isolates from CF patients (FIG. 8)
Method: EIPE-1 was evaluated against multiple Candida isolates from the airways of CF patients.

[4] = system: Candida albicans strain SC5314; experiment: Antifungal MIC assay; assay type: cell-based; conditions: for MIC: Candida albicans
Method: Cryptococcus neoformans serotype A strain H99 as well as Candida ablicans strain SC5314, were readily available in the lab. The stock of cells is stored at −80° C. to preserve the fungi and prevent contamination. The cells were grown and maintained in yeast extract-peptone-dextrose (YPD) media (Difco). Cryptococcus or Candida cells were incubated in YPD broth for 18 hrs at 30° C., in a shaking incubator. After the incubation period, they were washed three times in sterile phosphate-buffered saline (PBS) to remove all remaining residue of YPD. The cells were then quantified by using trypan blue dye exclusion in a hemocytometer.
C. albicans were suspended in RPMI with MOPS, 0.165M, at a concentration of 0.5×10^3 cells/mL. RPMI Mops media was added to a 96-well plate in a volume of 100 μL to every well, with the exception of column 1. An additional 80 μL of RPMI MOPS was added to column 4 for a total of 180 μL/per well. EIPE-1 was added to columns 2 and 4 with a volume of 20 μL at a concentration of 1 mg/mL. Contents were mixed, then serially diluted 100 μL down the plate until column 11. The last 100 μL was discarded, leaving column 12 blank. C. albicans was added at a volume of 100 μL per well from column 4 to column 12, so the final volume of the wells was 200 μL. Plates were incubated at 35° C. in a humid incubator for 48 hrs.

[5] = system: Escherichia coli (E. coli); experiment: Antimicrobial activity against E. coli; assay type: cell-based
Method: (§1) The methicillin resistant Staphylococcus aureus (MRSA) and Pseudomonas aeruginosa (PA) strains used in this study are clinical isolates obtained from an adult CF patient at the Cystic Fibrosis Clinic at the OU Children's Hospital (Oklahoma City, Okla.). Escherichia coli (E. coli) and Enterococcus faecalis (E. faecalis) were obtained from American Type Culture Collection (ATCC). The strains were grown overnight with shaking at 37° C. (220 RPM) in 15 mL of Luria-Bertani (LB) broth. The overnight culture was sub-cultured the next day before use for the MIC experiments. All sub-cultures consisted of 1 mL of the overnight culture, mixed with 10 mL of Mueller Hinton broth. The working stock of the EIPE-1 and DBI was prepared by dissolving 1 mg of each in 1 mL of DMSO.
The minimum inhibitory concentrations (MICs) were determined by the broth microdilution method, following the guidelines of the Clinical and Laboratory Standards Institute (CLSI). Two-fold serial dilutions of EIPE-1, DBI, and Arm (starting with 1 mg/mL) were prepared in a 100 μL volume in 96-well microtiter plates. The dilution series included DMSO as a negative control. […] Plates were incubated with shaking at 220 RPM at 37° C., and the MIC was determined based on the lowest concentration at which no visible growth of the bacterial isolate was observed.

[6] = system: Enterococcus faecalis (E. faecalis); experiment: MIC by broth microdilution; assay type: cell-based
Method: as §1
(§2) The minimum inhibitory concentrations (MICs) were determined by the broth microdilution method, following the guidelines of the Clinical and Laboratory Standards Institute (CLSI). Two-fold serial dilutions of EIPE-1, DBI, and Arm (starting with 1 mg/mL) were prepared in a 100 μL volume in 96-well microtiter plates. The dilution series included DMSO as a negative control. The bacterial culture […] was normalized to an OD600 of 0.2 and was then added to each well. Plates were incubated with shaking at 220 RPM at 37° C., and the MIC was determined based on the lowest concentration at which no visible growth of the bacterial isolate was observed.
(§3) In order to determine the MIC of EIPE-1 on MRSA, a culture of MRSA was grown overnight in Mueller Hinton broth (MHB) at 37° C., sub-cultured by a 1/100 dilution into MHB and dispensed into a 96 well culture block (900 μL of diluted culture in each well). To each well either DMSO or a serial dilution of EIPE-1 was added, then the culture was grown for 18 h at 37° C. The next day each well was tested for either growth or inhibition of growth by measuring of the OD^600 of the resulting culture. […] For comparison, the MIC of EIPE-1 was also determined against E. faecalis (8 μg/mL, 9 μM), confirming activity against Gram-positive bacteria.

[7] = system: methicillin resistant Staphylococcus aureus (MRSA) clinical isolate; experiment: MIC by broth microdilution; assay type: cell-based; conditions: Staphylococcus aureus, MRSA, 18 h, clinical isolate of MRSA from an adult CF patient; broth culture, 18 h at 37° C.; read-out: minimum inhibitory concentration (MIC)
Method: as §1, §2, §3

Structure (SMILES): COC(=O)c1cc2c(C#Cc3ccc(OCCC[N+](C)(C)C)cc3)c(OC)c(OC)c(C#Cc3ccc(OCCC[N+](C)(C)C)cc3)c2n1C [EIPE-1, 3,3′-((((5,6-dimethoxy-2-(methoxycarbonyl)-1-methyl-1H-indole-4,7-diyl)bis(ethyne-2,1-diyl))bis(4,1-phenylene))bis(oxy))bis(N,N,N-trimethylpropan-1-aminium) iodide]
- cell wall changes by SEM [1]: structural changes to their cell wall; also recorded: changes to the cell wall shown at 4 hours
- MIC ([2]; S. aureus SFL64): 1.000 µg/mL
- MIC ([2]; Staphylococcus aureus, SFL64, S. aureus SFL64, read-out: MIC): 0.5 µg/mL
- MIC [3]: 4 to 11 µg/mL
- Minimum inhibitory concentration (MIC) for the isolate of C. albicans ([4]; 35° C., 48 hrs, RPMI with MOPS): 2.705 ± 0.3962 µg/mL
- MIC ([4]; SC5314, 48 h, 35° C., 48 hrs, RPMI with MOPS, read-out: Minimum inhibitory concentration (MIC) for the isolate of C. albicans): 2.71 µg/mL
- MIC ([4]; SC5314, across seven experiments, read-out: Candida MIC): 2.46 µg/mL
- activity against E. coli [5]: did not display any activity
- MIC [6]: 8 µg/mL and 9 µM
- MIC [7]: 16 µg/mL and 17.1 µM
